Here are results for 40 compounds from US20240317727A1 (Duke University, priority 2018, published 2024).

Structures are written as SMILES. Where two headings read alike, the source gives them in different places.

For experiment [1], the target named is T1, recombinant HSF1 DNA-binding domain (DBD) (Homo sapiens, UniProt Q00613).
T1 sequence (Q00613 15-120): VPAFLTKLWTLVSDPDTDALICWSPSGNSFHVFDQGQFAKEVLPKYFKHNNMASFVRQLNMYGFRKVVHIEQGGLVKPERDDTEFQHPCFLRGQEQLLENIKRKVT
Description: Differential Scanning Fluorimetry (DSF), HSF1 DBD melting temperature. The conditions noted are these: Table 1; 5 μM HSF1 DBD, 25PM Compound; positive = stabilizes, negative = destabilizes HSF1. For orientation: Differential scanning fluorimetry follows unfolding on heating by fluorescence.

Experiment [2] concerns C4-2 prostate cancer cells. Description: C4-2 cell proliferation, Cell Titre Glo. The conditions noted are these: Homo sapiens, 48-hour period, 9-point dilution series, read-out: Cell Viability IC50. The format is cell-based. As for the experimental part: Next, cell viability of C4-2 prostate cancer cells was determined. C4-2 prostate cancer cells were grown in RMPI-1640 (no L-glutamine, Gibco 21870076) supplemented with 10% fetal bovine […] (non-heat-inactivated, Cytiva Hyclone SH30071.03). […] A 9-point dilution series was used to assess the ability of each compound to inhibit the growth of C4-2 prostate cancer cells over a 48-hour period, as compared to negative control solvent, DMSO. Cell proliferation was measured by the Cell Titre Glo assay using 384 well microtiter plate reader to quantitate luminescence. The IC50 was determined from the values obtained.

In experiment [3] the target is T2, purified recombinant human HSF1 (HSF1 DNA binding domain) (Homo sapiens, UniProt Q00613).
T2 sequence (Q00613 15-120): T1 sequence (Q00613 15-120)
Put plainly: Melting temperature of HSF1 DBD with HSF1 degrader compounds (Sypro orange). The conditions noted are these: read-out: ΔTm (° C.). As for the experimental part:
The melting temperature (ΔTm) for purified recombinant human HSF1 (HSF1 DNA binding domain) was determined in the presence of HSF1 degrader compounds shown in Table 5 and compared to the solvent DMSO. Sypro orange dye was added to the HSF1 DBD (5 micromolar final concentration) in buffer, mixed and distributed to wells in 384 well microtiter plates. HSF1 degrader compound (12.5 micromolar) or DMSO solvent was added to three replicate wells per compound concentration, mixed and plates loaded into a Quant Studio thermnocycler and run on a temperature gradient from 25° C. to 85° C. with increments of 0.5° C. steps. Melting curves were obtained and analyzed using the ThermnoFisher Shift Software 1.4 fitted with a Boltzmann equation to determine the change in melting temperature of the protein in the presence of DMSO as compared to compound. The difference in the melting temperature under these two conditions was assigned as the change in melting temperature of ΔTm.

The mark [4] stands for this setting: 12.5 micromolar compound, 5 micromolar HSF1 DBD, compared to DMSO.

The ΔTm is the change in melting temperature against a reference sample. As to `O=C(Nc1cc(Cl)ccc1O)c1ccccc1CSc1ccc(Cl)cc1` [Compound 0104], in experiment [1], the ΔTm at 25 µM stood at 3.27 °C. On the same count and under the same terms, the same measure for `CC(C)(C)c1ccc(NC(=O)Nc2ccc(Cl)c([N+](=O)[O-])c2)cc1` [Compound 0105, 1-(4-(tert-butyl)phenyl)-3-(4-chloro-3-nitrophenyl)urea]: 3.2 °C. For `O=C(Nc1cccc([N+](=O)[O-])c1)Nc1ccc(F)cc1C(=O)O` [Compound 0106, 5-fluoro-2-(3-(3-nitrophenyl)ureido)benzoic acid], the thermal shift (ΔTm) at 25 µM in experiment [1] was 3.28 °C.

As to `N#C/C(=C(/Oc1ccc(Cl)cc1Cl)C(F)(F)F)c1ccccc1` [Compound 0107], in experiment [1], the ΔTm at 25 µM was -4.4 °C.

With `CCOC(=O)c1sc(Sc2ccc([N+](=O)[O-])cc2[N+](=O)[O-])nc1C` [Compound 0108], the ΔTm at 25 µM in experiment [1] was -4.19 °C. In the case of `CC(C)c1ccc2c(c1)c(SC(C)(C)C)c(CC(C)(C)C(=O)O)n2Cc1ccc(Cl)cc1` [Compound 0109], the ΔTm at 25 µM in experiment [1] is -9.02 °C. Same read-out and setting: next, `Cc1ccc(NC(=O)Nc2cccc([N+](=O)[O-])c2)cc1` [Compound 0110, 1-(3-nitrophenyl)-3-(p-tolyl)urea]: 2.94 °C.

Take `Cc1cc(Oc2c([N+](=O)[O-])cc(C(F)(F)F)cc2[N+](=O)[O-])c2c(Cl)ccc(C)c2n1` [Compound 0111]: in experiment [1], the ΔTm at 25 µM was -5.21 °C.

As for `O=c1c(Nc2ccc(F)cc2)c(Nc2ccc(Cl)c(S(=O)(=O)C(F)(F)F)c2)c1=O` [Compound 0112, 3-[4-chloro-3-(trifluoromethylsulfonyl)anilino]-4-(4-fluoroanilino)cyclobut-3-ene-1,2-dione], the ΔTm at 25 µM in experiment [1] came out at 2.08 °C. On the same count and under the same terms, next, `Cc1ccc(NC(=O)Nc2ccc(Cl)cc2)cc1` [Compound 0113, 1-(4-chlorophenyl)-3-(p-tolyl)urea]: 2.28 °C; `Cc1cc(/C=N/Nc2nc3ccccc3s2)cc(C)c1O` [Compound 0114]: 0.49 °C; `Cc1ccc(CNC(=O)CSc2nnc(-c3ccccc3)n2-c2ccc(C)c(C)c2)cc1` [Compound 0115]: -9.91 °C. Still for that read-out and setting: the same measure for `CSc1ccc(Oc2c([N+](=O)[O-])cc(C(F)(F)F)cc2[N+](=O)[O-])cc1` [Compound 0116]: -5.56 °C.

Usually IC50 stands for the midpoint of a concentration-inhibition curve. Consider `N#Cc1cccc(NC(=O)Nc2ccc(Cl)c([N+](=O)[O-])c2)c1` [Compound 238, 1-(4-chloro-3-nitrophenyl)-3-(3-cyanophenyl)urea], for which the IC50 in experiment [2] amounted to 3.1 µM. In addition, the ΔTm at 12.5 µM in experiment [3] (setting [4]) is 3.49 °C. Take `N#Cc1ccc(NC(=O)Nc2ccc(Cl)c([N+](=O)[O-])c2)cc1` [Compound 239, 1-(4-chloro-3-nitrophenyl)-3-(4-cyanophenyl)urea]: in experiment [2], the IC50 turned out to be 2.94 µM. In addition, in experiment [3] (setting [4]), the ΔTm at 12.5 µM worked out at 3.13 °C. On to `N#Cc1ccc(NC(=O)Nc2ccc(Cl)c([N+](=O)[O-])c2)cc1C(F)(F)F` [Compound 240, 1-(4-chloro-3-nitrophenyl)-3-(4-cyano-3-(trifluoromethyl)phenyl)urea], for which the IC50 in experiment [2] was determined as 0.563 µM. In addition, the ΔTm at 12.5 µM in experiment [3] was determined as 3.01 °C.

As to `COc1cc(NC(=O)Nc2ccc(Cl)c([N+](=O)[O-])c2)ccc1C#N` [Compound 241, 1-(4-chloro-3-nitrophenyl)-3-(4-cyano-3-methoxyphenyl)urea], the IC50 in experiment [2] turned out to be 5.57 µM. The ΔTm at 12.5 µM in experiment [3] (setting [4]) came to 2.63 °C. Taken in the same sequence, the figures for `N#Cc1ccc(NC(=O)Nc2ccc3occc3c2)cc1` [Compound 246, 1-(benzofuran-5-yl)-3-(4-cyanophenyl)urea] were above 10 µM and 3.23 °C. Taken in the same sequence, the figures for `COc1cc(NC(=O)Nc2ccc(Cl)c(S(=O)(=O)C(F)(F)F)c2)ccc1C#N` [Compound 248, 1-(4-chloro-3-((trifluoromethyl)sulfonyl)phenyl)-3-(4-cyano-3-methoxyphenyl)urea] were 3.24 µM and 2.95 °C. Taken in the same sequence, the figures for `COc1cc(NC(=O)Nc2ccc3c(c2)S(=O)(=O)C=C3)ccc1C#N` [Compound 249, 1-(4-cyano-3-methoxyphenyl)-3-(1,1-dioxidobenzo[b]thiophen-6-yl)urea] were 4.56 µM and 1.5 °C.

With `COc1cc(NC(=O)Nc2ccc3nsnc3c2)ccc1C#N` [Compound 250, 1-(benzo[c][1,2,5]thiadiazol-5-yl)-3-(4-cyano-3-methoxyphenyl)urea], the IC50 in experiment [2] was above 10 µM. For the same compound, in experiment [3] (setting [4]), the ΔTm at 12.5 µM came out at 1.3 °C. Taken in the same sequence, the figures for `COc1cc(NC(=O)Nc2ccc3occc3c2)ccc1C#N` [Compound 251] were above 10 µM and 2.06 °C. As for `N#Cc1ccc(NC(=O)Nc2ccc(C#N)c(C(F)(F)F)c2)cc1C(F)(F)F` [Compound 252, 1,3-bis(4-cyano-3-(trifluoromethyl)phenyl)urea], the IC50 in experiment [2] amounted to 2.08 µM. For the same compound, the ΔTm at 12.5 µM in experiment [3] is 1.33 °C. Regarding `N#Cc1ccc(NC(=O)Nc2ccc(C#N)cc2)cc1` [Compound 253, 1,3-bis(4-cyanophenyl)urea], the IC50 in experiment [2] is above 10 µM. In experiment [3] (setting [4]), the ΔTm at 12.5 µM was 1.91 °C. Regarding `N#Cc1ccc(NC(=O)Nc2ccc(F)cc2)cc1C(F)(F)F` [Compound 254, 1-(4-cyano-3-(trifluoromethyl)phenyl)-3-(4-fluorophenyl)urea], the IC50 in experiment [2] stood at 4.02 µM. For the same compound, the ΔTm at 12.5 µM in experiment [3] was determined as 1.84 °C. As to `N#Cc1ccc(NC(=O)Nc2ccc(F)cc2)cc1` [Compound 255, 1-(4-cyanophenyl)-3-(4-fluorophenyl)urea], the IC50 in experiment [2] is above 10 µM. In addition, in experiment [3] (setting [4]), the ΔTm at 12.5 µM is 2.22 °C. On to `N#Cc1ccc(NC(=O)Nc2ccc3c(c2)S(=O)(=O)C=C3)cc1C1CC1` [Compound 259, 1-(4-cyano-3-cyclopropylphenyl)-3-(1,1-dioxidobenzo[b]thiophen-6-yl)urea], for which the ΔTm at 12.5 µM in experiment [3] (setting [4]) turned out to be 1.25 °C. Still for that read-out and setting: the same measure for `N#Cc1ccc(NC(=O)Nc2ccc3c(c2)S(=O)(=O)C=C3)cc1C1CCCC1` [Compound 260, 1-(4-cyano-3-cyclopentylphenyl)-3-(1,1-dioxidobenzo[b]thiophen-6-yl)urea]: 0.5 °C; for `CCc1cc(NC(=O)Nc2ccc3c(c2)S(=O)(=O)C=C3)ccc1C#N` [Compound 262, 1-(4-cyano-3-ethylphenyl)-3-(1,1-dioxidobenzo[b]thiophen-6-yl)urea]: 2.47 °C. Still for that read-out and setting: next, `CC(C)c1cc(NC(=O)Nc2ccc3c(c2)S(=O)(=O)C=C3)ccc1C#N` [Compound 263, 1-(4-cyano-3-isopropylphenyl)-3-(1,1-dioxidobenzo[b]thiophen-6-yl)urea]: 1.25 °C; `N#Cc1ccc(NC(=O)Nc2ccc3c(c2)C=CS3(=O)=O)s1` [Compound 272, 1-(5-cyanothiophen-2-yl)-3-(1,1-dioxidobenzo[b]thiophen-5-yl)urea]: 0.86 °C; `N#Cc1ccc(NC(=O)Nc2cccc([N+](=O)[O-])c2)cc1` [Compound 273, 1-(4-cyanophenyl)-3-(3-nitrophenyl)urea]: 1.15 °C. Same read-out and setting: the same measure for `N#Cc1ccc(NC(=O)Nc2cccc(C(F)(F)F)c2)cc1` [Compound 274, 1-(4-cyanophenyl)-3-(3-(trifluoromethyl)phenyl)urea]: 1.41 °C.

For `N#Cc1ccc(NC(=O)Nc2cccc(S(=O)(=O)C(F)(F)F)c2)cc1` [Compound 275, 1-(4-cyanophenyl)-3-(3-((trifluoromethyl)sulfonyl)phenyl)urea], in experiment [3] (setting [4]), the ΔTm at 12.5 µM was 1.31 °C.

Take `CS(=O)(=O)Nc1cccc(NC(=O)Nc2ccc(C#N)cc2)c1` [Compound 276, N-(3-(3-(4-cyanophenyl)ureido)phenyl)methanesulfonamide]: the ΔTm at 12.5 µM in experiment [3] (setting [4]) was found to be 0.12 °C. Still for that read-out and setting: next, `N#Cc1ccc(NC(=O)Nc2ccc3c(c2)C(=O)CCC3)cc1` [Compound 278, 1-(4-cyanophenyl)-3-(8-oxo-5,6,7,8-tetrahydronaphthalen-2-yl)urea]: -0.95 °C; `N#Cc1ccc(NC(=O)Nc2cccc(-c3nnn[nH]3)c2)cc1` [Compound 280, 1-(3-(1H-tetrazol-5-yl)phenyl)-3-(4-cyanophenyl)urea]: 0.01 °C. Still for that read-out and setting: the same measure for `CC(=O)N1CCc2ccc(NC(=O)Nc3ccc(C#N)cc3)cc21` [Compound 281, 1-(1-acetylindolin-6-yl)-3-(4-cyanophenyl)urea]: -1.92 °C; for `N#Cc1ccc(NC(=O)Nc2ccc3c(c2)CCCS3(=O)=O)cc1` [Compound 282, 1-(4-cyanophenyl)-3-(1,1-dioxidothiochroman-6-yl)urea]: -0.97 °C. For `CN(C)CCc1ccc(NC(=O)Nc2ccc(C#N)cc2)cc1S(=O)(=O)C(F)(F)F` [Compound 287, 1-(4-cyanophenyl)-3-(4-(2-(dimethylamino)ethyl)-3-((trifluoromethyl)sulfonyl)phenyl)urea], the IC50 in experiment [2] is above 10 µM.
